The values below are quoted from earlier work in patent US6656923B1, “Uncomplexed cyclodextrin compositions for odor and wrinkle control” (The Procter & Gamble Company, priority 1997, dated 2003).

Turning to `ClC=CC[N+]12CN3CN(CN(C3)C1)C2.[Cl-]` [Dowicil 200, 1-(3-Chlorallyl)-3,5,7-triaza-1-azoniaadamantane chloride], the “solubility in water” value is on record as “freely soluble in water”.
